Assay: Emission intensity of fluorophores exposed to different excitation wavelengths
Assay type: physicochemical
Details: shift in excitation wavelength
Description: FIGS. 10A and 10B present graphs of emission intensities for two separate fluorphores, mPlum and cy5, exposed to different excitation wavelengths. As shown in FIG. 10A the shift in excitation wavelength yielded a decrease in emission intensity of about 96% for fluorphore 1 which was mPlum.

Compound	increase in emission intensity	decrease in emission intensity (FIG. 10A)
CCN1/C(=C/C=C/C=C/C2=[N+](CCCCCC(=O)O)c3ccc(S(=O)(=O)O)cc3C2(C)C)C(C)(C)c2cc(S(=O)(=O)[O-])ccc21 [cy5]	about 156%	
mPlum		about 96%

— patent US10813554B2, “Medical imaging device and methods of use” (Lumicell, Inc., priority 2013, dated 2020)
